Test results published in US20050272677A1, “Delivery of a substance to a pre-determined site” (priority 2002, published 2005).
Where two headings read alike, the source gives them in different places.

Key:
[1] = test system: neurospheres (neural stem cells); test: Ex vivo transfection of neurospheres with pEGFP-N1 lipoplexes; type: cell-based, mice; conditions: 4 hours incubation, read after two days
Procedure: Neural stem cells were isolated from the forebrain of mice embryos and cultured in the presence of epidermal growth factor (EGF) and fibroblast growth factor (FGF). In the presence of these growth factors, neural stem cells form neurospheres, clusters of cells that grow in suspension.
Prior to transfection of neurospheres, the spheres were immobilized on Labtek culture plates that were coated with poly-ornithine. Subsequently, neurospheres were incubated for 4 hours with SF-6/DOPE (1:1 molar ratio), SF-63, SF-80/DOPE (1:1 molar ratio), or Lipofectamine 2000 lipoplexes, containing plasmid DNA encoding Enhanced Green Fluorescent Protein (pEGFP-N1). After two days, the transfection efficiency was determined with fluorescence microscopy.

[2] = In vivo delivery of luciferase DNA complexed with Sunfish amphiphiles; set-up: species or system mouse; conditions: 24 hours; efficiency order SF-46>SF-36>SF-6>SF-30>SF-63
Procedure: Sunfish (SF) amphiphiles were tested and compared to DOTAP, a commercially available amphiphile (Avanti Polar Lipids). The used plasmid DNA codes for Luciferase, which is expressed upon transfection. Luciferase activity represents the efficiency of transfection. Liposomes were prepared by drying the Sunfish amphiphiles or DOTAP in glass tubes under a nitrogen flow followed by being under vacuum for one hour. The lipid film was resuspended in 20% sucrose by mixing and warming up for five minutes to 60° C. in a water bath. The liposomal suspension was then sonicated for three minutes. For lipoplexes formation, plasmid DNA (30 μg/mouse) diluted in 20% sucrose was added to the liposomes (450 nmol/mouse) under mixing. The lipoplexes were allowed to rest at room temperature for […] and were intravenously injected (150 μl) in male BALB/c mice. Organs (lungs, heart, liver, spleen and kidneys) were collected 24 hours after injection for analysis. Luciferase activity was measured in homogenates of the different organs and related to a standard curve obtained with purified recombinant Luciferase.

MscL [3] = target: T1, MscL (Escherichia coli, UniProt P0A742); type: biochemical, E. coli
T1 sequence (P0A742 whole entry, looked up): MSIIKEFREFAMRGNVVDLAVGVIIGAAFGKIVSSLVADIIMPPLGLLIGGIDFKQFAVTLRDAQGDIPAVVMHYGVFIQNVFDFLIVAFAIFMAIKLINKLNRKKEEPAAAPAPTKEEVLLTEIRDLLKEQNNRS
Procedure: Results Overexpression and Purification of the MscL Channel Protein
Samples were prepared and calcein efflux was monitored as described elsewhere in Example 1.
300 μl of detergent-treated liposomes were gently mixed with 240 μl of 0.25 mg/ml purified MscL-mutant G22C in elution buffer containing 0.2% Triton X-100. The mixture was incubated at 60° C. for 45 minutes, followed by the addition of an equal volume (540 μl) of calcein-loading buffer, containing 200 mM calcein, 25 mM Tris, 1 mM EDTA, pH 8.0. After addition of 20 mg of Triton X-100-absorbing Bio-Beads SM-2, the mixture was gently agitated for one hour at room temperature. Subsequently, 80 mg Bio-Beads were added and incubated at 4° C. overnight under mild agitation. Samples were prepared for calcein efflux assay as described elsewhere.

MscL [4] = conditions: spheroplasts
Procedure: Patch-clamp experiments on spheroplast allow quantitation of the tension sensitivity because of the presence of an internal control, which is the mechanosensitive channel of small conductance (MscS). […] For most clinical applications, it is important that the channel remains closed at pH values of 7.4.
Giant spheroplasts were prepared as described before and electrophysiological measurements were done by using symmetrical buffers, both in the bath and in the pipette. The gating threshold of MscL (or its mutant) is given as the ratio of the suction required to open MscL to that at which MscS opens.
Giant spheroplasts were prepared as described in P. Blount, et al., 1999, Methods Enzymol. 294:458-482.

MscL [5] = conditions: pH 6; Yoshimura et al. 1999; cited from earlier work
[6] = test system: pB104 strain (MscL null E. coli); test: MTSET shock assay on agar plates with IPTG; type: cell-based; set-up: Growth −MTSET-shock: key to the marks not given beside the values
Procedure: The constructs of the G20C^Ll, V21C^Ll and G22C^Ec MscL-6His mutants were constructed using standard molecular biology techniques. The mutants were tested in pB104 strain (MscL null E. coli) by a MTSET shock assay on agar plates with IPTG (A. F. Batiza, et al., 2002, PNAS, 99:5643-5648).

[7] = test system: pB104 strain (MscL null E. coli); test: Growth assay of MscL mutants on agar plates with or without IPTG; type: cell-based; set-up: key: ++++: growth equal to cells expressing wild-type MscL; growth is indicated by ++++ to −; growth is indicated by ++++ to −; growth is indicated by ++++ to −; −: an absence of growth; conditions: pB104 with Lac-inducible plasmid
Procedure: The constructs of the MscL-6His mutants were constructed using standard molecular biology techniques. The mutants were tested in the pB104 strain (MscL null E. coli) by a growth assay on agar plates with or without IPTG (K. Yoshimura et al., 1999, Biophys. J. 77:1960-1972).
The first phenotype (++) grows like the single G22S mutant.

MscL [8] = target: T2, MscL (Escherichia coli, UniProt P0A742); test: Release from heparin sulfate loaded liposomes with an applied electric field; conditions: liposome with calcein, negative potential
T2 construct: made in house; host or cells: E. coli PB104
Procedure: In vitro release profiles of a model drug were determined. Liposomes, as in Example 1, with and without MscL-6His, were prepared in the presence of the dye, calcein and heparin sulfate, a natural polymer found in secretory granules. A liposome was inserted into the tip of a glass pipette with the application of suction. The pipette voltage relative to the bath was controlled by a current-to-voltage converter. The solution in both the bath and the pipette was buffered to 6.5 with histamine dichloride and phosphoric acid. An Axopatch 200B was used to apply voltages and to sample the currents at 2.5 ms intervals. Swelling was induced by the application of a negative potential. To measure the swelling, the isolated liposomes were imaged and analyzed as described (J. M. Fernandez, et al., 1991, Biophys. J. 59:1022-1027, and J. R. Monck, et al., 1991; Biophys. J. 59:39-47).

CCCCCCCC/C=C\CCCCCCCCCc1ccc[n+](CCCCCCCC/C=C\CCCCCCCC)c1.[Cl-] [SF-63, 1-(9′-cis-octadecenyl)-3-(10″-cis-nonadecenyl)pyridinium Chloride]
transfection efficiency (GFP, fluorescence microscopy) [1]: constant | gene expression (Luciferase) after intravenous injection of complexed DNA [2]: resulted in gene expression in the lungs

WT: wild-type E. coli MscL (6His construct)
calcein efflux upon osmotic downshock (MscL [3]): greater efflux of calcein than liposomes without MscL | Gating threshold (ratio of activation pressure to that of MscS) (MscL [4]; pH 5.85): 1.53 ± 0.185 | Gating threshold (ratio of activation pressure to that of MscS) (MscL [4]; pH 7.5): 1.56 ± 0.139 | Gating threshold (ratio of activation pressure to that of MscS) (MscL [5]): 1.64 ± 0.08 | Growth after +MTSET-shock [6]: ++++ | Growth −MTSET-shock [6]: ++++ | Growth on agar plates +IPTG ([7]; with IPTG): ++++ | Growth on agar plates −IPTG ([7]; without IPTG): ++++

heparin sulfate
swelling on applied voltage (MscL [8]): swelled instantaneously and predictably with the application of a negative voltage
